The values below come from paper PMC4126480, “Evaluation of drug interaction potential of Labisia pumila (Kacip Fatimah) and its constituents” (Frontiers in Pharmacology, 2014).

Data set [1] addresses T1, CYP1A2 (Homo sapiens, UniProt P05177).
T1 construct: purchased BD Gentest (Woburn, MA, USA); host or cells: baculovirus expression system
T1 sequence (P05177 1-516): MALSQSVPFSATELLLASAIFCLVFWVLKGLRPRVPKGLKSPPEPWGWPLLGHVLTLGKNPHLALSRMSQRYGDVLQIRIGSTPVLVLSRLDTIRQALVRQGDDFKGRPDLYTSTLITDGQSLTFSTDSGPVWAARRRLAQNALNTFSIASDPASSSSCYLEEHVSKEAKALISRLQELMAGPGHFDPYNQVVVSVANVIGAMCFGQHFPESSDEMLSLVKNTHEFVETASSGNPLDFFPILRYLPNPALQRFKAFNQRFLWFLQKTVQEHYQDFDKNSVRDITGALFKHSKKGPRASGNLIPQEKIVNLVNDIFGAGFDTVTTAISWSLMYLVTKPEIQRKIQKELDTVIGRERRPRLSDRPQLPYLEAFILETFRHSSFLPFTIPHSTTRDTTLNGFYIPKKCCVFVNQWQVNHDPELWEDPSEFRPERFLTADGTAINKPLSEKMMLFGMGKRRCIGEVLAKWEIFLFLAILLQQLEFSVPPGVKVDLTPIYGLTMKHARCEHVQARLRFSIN
The data set can be described thus: Reversible inhibition of recombinant CYP1A2. The data set is classed as in vitro ADME. As to the method:
(§1) The assay for reversible inhibition was conducted in a total volume of 200 μL in 96-well microplates. The assay conditions, enzyme and substrate concentrations were similar as reported earlier ([Crespi et al., 1997]; [Manda et al., 2013]). Test samples or positive controls were serially diluted in a solution (100 μL) of cofactors mix, control protein (0.05 mg of protein/mL), and G-6-PDH to achieve six concentrations (100-0.4 μM or μg/mL). Initial readings were taken to record any inherent fluorescence and the plates were incubated at 37°C for 10 min. Reaction was initiated by the addition of enzyme substrate mixture (100 μL) followed by incubation for 15, 30, or 45 min. The reaction was terminated by the addition of 75 μL of ice cold acetonitrile/0.5 M Tris base (80:20). Fluorescence was measured on Spectramax M5 plate reader (Molecular Devices, Sunnyvale, CA, USA) at specified excitation and emission wavelengths for each substrate. IC50 values (co-incubation assay) were obtained from concentration-response curves generated by plotting concentration versus % inhibition.

Data set [2] has as its target T2, CYP2D6 (Homo sapiens, UniProt P10635).
T2 construct: purchased BD Gentest (Woburn, MA, USA); host or cells: baculovirus expression system
The data set can be described thus: Prediction of in vivo HDI from in vitro results, CYP2D6. Conditions: for Likelihood of causing HDI: CYP2D6, IC50 compared with estimated GIT and plasma concentrations; for Plasma concentration: Table 3, CYP2D6 section. As to the method:
(§2) All assumptions to predict the HDI potential of KF methanolic extract and its constituents were according to previously published report ([Awortwe et al., 2014]). The % yield was calculated from the amounts extracted from the KF roots ([Ali and Khan, 2011]). The human GIT volume is 250 mL and plasma volume is about 3 L. The commonly used maximum dose of KF extract capsules is 560 mg per day ([Abdul Kadir et al., 2012]) and accordingly we estimated the concentration per dose, GIT, and plasma concentrations of extract and its constituents. We then compared the in vitro IC50 values obtained from recombinant CYPs with estimated GIT and plasma concentrations. If the IC50 values were lower than the GIT or plasma concentration, then the test compound or extract is likely to cause HDI in vivo.

In data set [3] the target is T2, CYP2D6. The data set can be described thus: Reversible inhibition of recombinant CYP2D6. The data set is classed as in vitro ADME. As to the method: as §1
For data set [4], the target named is T3, CYP2C9 (Homo sapiens, UniProt P11712).
T3 construct: purchased BD Gentest (Woburn, MA, USA); host or cells: baculovirus expression system
T3 sequence (P11712 whole entry): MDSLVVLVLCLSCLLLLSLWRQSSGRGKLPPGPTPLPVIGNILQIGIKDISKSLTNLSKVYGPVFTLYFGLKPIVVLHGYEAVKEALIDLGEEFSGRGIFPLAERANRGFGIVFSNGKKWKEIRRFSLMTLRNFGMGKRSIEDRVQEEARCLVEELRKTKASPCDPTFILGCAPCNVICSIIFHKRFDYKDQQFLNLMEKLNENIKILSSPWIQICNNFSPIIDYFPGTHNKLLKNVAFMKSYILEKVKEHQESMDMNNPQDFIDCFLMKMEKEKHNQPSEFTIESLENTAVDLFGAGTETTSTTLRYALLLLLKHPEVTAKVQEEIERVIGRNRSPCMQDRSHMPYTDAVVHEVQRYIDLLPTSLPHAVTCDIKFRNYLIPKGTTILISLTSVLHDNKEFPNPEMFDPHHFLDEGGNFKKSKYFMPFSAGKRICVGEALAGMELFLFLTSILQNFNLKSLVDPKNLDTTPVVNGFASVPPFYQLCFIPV
Description: Reversible inhibition (co-incubation assay) of recombinant CYP2C9. The data set is classed as in vitro ADME. As to the method:
as §1

For data set [5], the target named is T4, CYP3A4 (Homo sapiens, UniProt P08684).
T4 construct: purchased BD Gentest (Woburn, MA, USA); host or cells: baculovirus expression system
T4 sequence (P08684 whole entry): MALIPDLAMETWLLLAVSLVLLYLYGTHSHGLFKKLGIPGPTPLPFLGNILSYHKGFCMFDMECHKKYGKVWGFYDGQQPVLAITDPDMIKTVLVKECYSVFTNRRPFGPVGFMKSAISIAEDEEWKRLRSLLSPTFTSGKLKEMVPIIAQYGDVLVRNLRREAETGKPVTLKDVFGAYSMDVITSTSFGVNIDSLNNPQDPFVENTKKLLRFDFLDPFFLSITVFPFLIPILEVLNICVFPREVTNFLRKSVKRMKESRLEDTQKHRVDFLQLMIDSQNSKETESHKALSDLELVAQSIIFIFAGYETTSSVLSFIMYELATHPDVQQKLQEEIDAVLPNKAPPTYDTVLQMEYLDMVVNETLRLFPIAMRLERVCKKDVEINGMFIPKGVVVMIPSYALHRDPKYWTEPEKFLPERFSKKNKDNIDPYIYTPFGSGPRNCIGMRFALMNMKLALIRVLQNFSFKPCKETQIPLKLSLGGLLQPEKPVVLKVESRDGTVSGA
Description: Reversible inhibition (co-incubation assay) of recombinant CYP3A4, fluorescent substrate. It counts as in vitro ADME. As for the experimental part:
as §1, with “The assay conditions, enzyme and substrate concentrations were similar as reported earlier ([Crespi et al., 1997]; [Manda et al., 2013]).” left out

Data set [6] addresses T4, CYP3A4. The data set can be described thus: Prediction of in vivo HDI from in vitro results, CYP3A4. The arrangement: key to Likelihood of causing HDI: If the IC50 values were lower than the GIT or plasma concentration, then the test compound or extract is likely to cause HDI in vivo. Conditions: for Likelihood of causing HDI: CYP3A4, IC50 compared with estimated GIT and plasma concentrations; for Plasma concentration: Table 3, CYP3A4 section. As for the experimental part: as §2

Data set [7] deals with T5, CYP2C19 (Homo sapiens, UniProt P33261).
T5 construct: purchased BD Gentest (Woburn, MA, USA); host or cells: baculovirus expression system
T5 sequence (P33261 whole entry): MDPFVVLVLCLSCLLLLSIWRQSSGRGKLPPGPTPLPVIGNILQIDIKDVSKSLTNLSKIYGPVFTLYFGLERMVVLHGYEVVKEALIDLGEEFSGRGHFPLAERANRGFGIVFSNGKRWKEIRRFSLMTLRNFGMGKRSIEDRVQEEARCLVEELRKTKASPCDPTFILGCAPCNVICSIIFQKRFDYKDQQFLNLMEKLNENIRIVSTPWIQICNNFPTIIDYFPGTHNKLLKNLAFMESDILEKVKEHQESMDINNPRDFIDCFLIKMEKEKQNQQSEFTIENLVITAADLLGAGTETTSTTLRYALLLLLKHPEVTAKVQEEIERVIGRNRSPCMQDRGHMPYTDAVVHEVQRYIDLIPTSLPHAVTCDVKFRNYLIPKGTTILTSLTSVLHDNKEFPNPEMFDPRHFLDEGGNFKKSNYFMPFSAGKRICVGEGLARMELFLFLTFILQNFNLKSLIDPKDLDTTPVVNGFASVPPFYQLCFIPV
The data set can be described thus: Prediction of in vivo HDI from in vitro results, CYP2C19. On the set-up: key to Likelihood of causing HDI: If the IC50 values were lower than the GIT or plasma concentration, then the test compound or extract is likely to cause HDI in vivo. Conditions: for Likelihood of causing HDI: CYP2C19, IC50 compared with estimated GIT and plasma concentrations; for Plasma concentration: Table 3, CYP2C19 section. As to the method:
as §2

The target of data set [8] is T3, CYP2C9. Description: Prediction of in vivo HDI from in vitro results, CYP2C9. On the set-up: key to Likelihood of causing HDI: If the IC50 values were lower than the GIT or plasma concentration, then the test compound or extract is likely to cause HDI in vivo. Conditions: for Likelihood of causing HDI: CYP2C9, IC50 compared with estimated GIT and plasma concentrations; for Plasma concentration: Table 3, CYP2C9 section. As for the experimental part:
as §2

Data set [9] is described as follows: Estimation of concentration per dose, GIT and plasma concentrations (560 mg KF extract dose). The arrangement: species or system human. Conditions: for Estimated concentration per dose: 560 mg KF extract, single dose, from % yield; for Estimated GIT concentration / Estimated Plasma concentration: 560 mg dose; for Estimated GIT concentration: human GIT volume 250 mL; for Estimated Plasma concentration: Table 2, plasma volume 3 L, 100% bioavailable assumed. As for the experimental part:
as §2

In data set [10] the target is T1, CYP1A2. The data set can be described thus: Prediction of in vivo HDI from in vitro results, CYP1A2. Conditions: for Likelihood of causing HDI: CYP1A2, IC50 compared with estimated GIT and plasma concentrations; for Plasma concentration: Table 3, CYP1A2 section. As to the method:
as §2

Several values for one entry are separate records, joined by “and”; a condition that tells them apart may be missing. Equal entries are not always repeated.

T2 sequence (P10635 whole entry): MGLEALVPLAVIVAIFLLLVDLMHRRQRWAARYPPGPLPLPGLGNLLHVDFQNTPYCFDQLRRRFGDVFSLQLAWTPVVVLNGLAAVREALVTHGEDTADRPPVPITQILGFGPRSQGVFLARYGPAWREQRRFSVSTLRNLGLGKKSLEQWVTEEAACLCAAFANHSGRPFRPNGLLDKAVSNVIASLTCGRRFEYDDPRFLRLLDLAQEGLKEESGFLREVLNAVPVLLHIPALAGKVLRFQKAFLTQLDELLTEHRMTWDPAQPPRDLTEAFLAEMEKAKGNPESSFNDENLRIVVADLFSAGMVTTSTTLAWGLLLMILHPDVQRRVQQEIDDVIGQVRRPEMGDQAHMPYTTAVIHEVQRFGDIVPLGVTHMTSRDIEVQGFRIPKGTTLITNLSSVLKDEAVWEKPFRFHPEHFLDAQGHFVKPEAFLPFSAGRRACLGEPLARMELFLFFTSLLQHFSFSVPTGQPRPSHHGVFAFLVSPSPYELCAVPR

By IC50 is commonly meant the concentration that gives 50% inhibition. As to `CCCC/C=C\CCCCCCCCCC1=C(c2c(O)cc(O)cc2CCCCCCCCC/C=C\CCCC)C(=O)C=C(OC)C1=O` [Demethylbelamcandaquinone B], the IC50 in [1] is 75.4 µM; in data set [3], 33.2 µM; in [4], 16 µM and 15.1 µM; in [5], 69 µM and 67.9 µM. Further, the “Likelihood of causing HDI” value in data set [2] is recorded as “unlikely”; in data set [6], “unlikely”; in [7], “likely”; in data set [8], “likely”; in [10], “unlikely”. For the same compound, the Plasma concentration was 1640 ng/mL in [2]; 790 ng/mL in data set [6]; 790 ng/mL in [7]; 790 ng/mL in [8]; 722 ng/mL in data set [10]. In data set [9], the “Estimated concentration per dose” value is on record as 6.77 mg/mL. In data set [9], the “Estimated GIT concentration” value is 27.1 µg/mL. For the same compound, in data set [9], the “Estimated Plasma concentration” value was 2.25 µg/mL.

In the case of `CCCC/C=C\CCCCCCCCCc1cc(O)cc2oc3cc(OC)c(O)c(CCCCCCCCC/C=C\CCCC)c3c12` [Fatimahol], the IC50 in data set [1] is 47.9 µM; in data set [4], 17 µM; in data set [5], 25 µM and 24.7 µM. Moreover, the “Likelihood of causing HDI” value in data set [2], in data set [6], in data set [7], in data set [8] and in data set [10] was “unlikely” each time. The Plasma concentration in data set [2], in [6], in [7], in [8] and in data set [10] was 16 ng/mL throughout. Moreover, the “Estimated concentration per dose” value in [9] is reported as 0.05 mg/mL. Also, in [9], the “Estimated GIT concentration” value was 0.20 µg/mL. The “Estimated Plasma concentration” value in data set [9] was 0.016 µg/mL.

On to `CCCC/C=C\CCCCCCCCCc1cc(O)cc(O)c1` [5-[10(Z)-pentadecenyl]resorcinol], for which the IC50 in data set [1] was 91.1 µM; in data set [3], 87.9 µM; in data set [4] it was 11.9 µM; in [5] it was 4.1 µM and 4.4 µM. The “Likelihood of causing HDI” value is “Remote” in [2]; “likely” in data set [6]; “likely” in data set [7]; “likely” in data set [8]; “Remote” in data set [10]. The Plasma concentration in data set [2] is 1460 ng/mL; in data set [6], 13220 ng/mL; in data set [7], 13220 ng/mL; in data set [8] it was 13220 ng/mL; in data set [10], 774 ng/mL. The “Estimated concentration per dose” value in data set [9] is 6.72 mg/mL. Besides, the “Estimated GIT concentration” value in [9] was 27.1 µg/mL. Besides, the “Estimated Plasma concentration” value in data set [9] was 2.2 µg/mL.

For the compound `CCCC/C=C\CCCCCCCCCc1cc(O)cc(OC)c1` [Belamcandol B], the IC50 in data set [1] is 220 µM; in data set [3], 105 µM; in [4], 69.2 µM; in data set [5] it was 18 µM and 45.1 µM. Also, the “Likelihood of causing HDI” value was “unlikely” in data set [2]; “Remote” in data set [6]; “likely” in data set [7]; “remote” in [8]; “unlikely” in data set [10]. The Plasma concentration in data set [2] is 650 ng/mL; in data set [6] it was 1520 ng/mL; in [10], 310 ng/mL. Moreover, the “Estimated concentration per dose” value in data set [9] is listed as 3.41 mg/mL. The “Estimated GIT concentration” value in [9] is 13.64 µg/mL. In [9], the “Estimated Plasma concentration” value was 1.13 µg/mL.
